According to US20250154162A1, “COMPOUND FOR REGULATING AND CONTROLLING 15-PGDH ACTIVITY AND PREPARATION METHOD THEREFOR” (SCINNOHUB PHARMACEUTICAL CO., LTD., priority 2022, published 2025):
One block for each compound: values may come before it.

Tests used:
[1] = molecular target: 15-PGDH (Homo sapiens (Human), UniProt P15428); assay: Detection of 15-PGDH enzyme activity; assay type: biochemical; conditions: 15-PGDH enzyme inhibitory activity; substrates β-NAD and PGF2α
Description: The formula was shown below: Y=Bottom+(Top-Bottom)/(1+10∧((LogIC50−X)*HillSlope)), wherein X is a log value of a concentration of the compound, and Y is inhibition rate %.

[2] = system: A549 cells; assay: Assay of intracellular PGE2 up-regulatory activity; assay type: cell-based; conditions: Homo sapiens, IL-1β induced, 8 h, relative to positive control group; for activity at 0.01 µM: 10 nM compound, read-out: PGE2 upregulation rate at 10 nM compound concentration; for activity at 0.3 µM: 300 nM compound, read-out: PGE2 upregulation rate at 300 nM compound concentration
Procedure: • a) A549 cells were inoculated in the 24-well plate, and after cell adhesion, IL-1β was added thereto for 16 h of stimulation to induce COX2 expression and PGE2 production. • b) A solution of the compound to be tested was prepared with the culture medium and gradiently diluted to 3 concentrations of 10 nM, 300 nM and 10,000 nM or 7 concentrations of 0.64 nM, 3.2 nM, 16 nM, 80 nM, 400 nM, 2000 nM and 10,000 nM, and meanwhile the positive control group (only IL-1β was added to the cells for induction) and negative control group (only cells were added in the wells without any treatment) were set up. The cell supernatants were collected after 8 h of action, in which the positive control group was induced by IL-1β without treatment of the compounds, and the negative control group was neither stimulated by IL-1β, nor treated with the compounds. • c) The PGE2 content of the samples was determined by Prostaglandin E2 Kit, and the fluorescence signal was detected by a multifunctional microplate reader (Ex/Em=337/620, 337/665).
• a) A standard curve was plotted with the PGE2 standard in the Prostaglandin E2 Kit, and the PGE2 concentration was calculated by substituting with the fluorescence signal of the sample. • b) The PGE2 upregulation rate % was calculated by using the following formula: • PGE2 upregulation rate %=(PGE2 concentration of sample group/PGE2 concentration of positive control group)×100%.

Sequence of 15-PGDH (P15428 whole entry): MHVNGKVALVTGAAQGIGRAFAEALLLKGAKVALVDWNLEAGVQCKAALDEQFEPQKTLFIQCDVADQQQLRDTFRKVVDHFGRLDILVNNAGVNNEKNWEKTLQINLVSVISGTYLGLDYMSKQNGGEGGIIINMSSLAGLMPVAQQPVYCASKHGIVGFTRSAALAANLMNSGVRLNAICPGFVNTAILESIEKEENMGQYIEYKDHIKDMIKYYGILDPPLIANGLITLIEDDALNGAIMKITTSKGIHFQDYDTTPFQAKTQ

SMILES: Nc1c(C(=O)N2CCCCC2)sc2nc(-c3ccnc(C(F)(F)F)c3)cnc12 [Example 37]
IC50 [1]: 3 to 10 nM

SMILES: Nc1c(C(=O)N2CCCCC2)sc2nc(-c3ccc4c(c3)OCCO4)cnc12 [Example 10]
IC50 [1]: 0.5 to 3 nM | activity at 0.3 µM [2]: 206%

SMILES: Nc1c(C(=O)N2CCCCC2)sc2nc(-c3ccc4c(c3)OCO4)cnc12 [Example 43]
IC50 [1]: 3 to 10 nM

SMILES: Nc1c(C(=O)N2CCCCC2)sc2nc(-c3ccc4cccnc4c3)cnc12 [Example 39]
IC50 [1]: 0.5 to 3 nM

SMILES: Nc1c(C(=O)N2CC[S+]([O-])CC2)sc2nc(-c3ccccc3)cnc12 [Example 58]
IC50 [1]: > 5000 nM

SMILES: Nc1c(C(=O)N2CCOCC2)sc2nc(-c3ccccc3)cnc12 [Example 51]
IC50 [1]: 50 to 1000 nM

SMILES: Nc1c(C(=O)N2CCCCC2)sc2nc(-c3cnc4[nH]ccc4c3)cnc12 [Example 29]
IC50 [1]: 0.5 to 3 nM

SMILES: Nc1c(C(=O)N2CCCCCC2)sc2nc(-c3ccccc3)cnc12 [Example 4]
IC50 [1]: 10 to 25 nM

SMILES: Nc1c(C(=O)N2CCSCC2)sc2nc(-c3ccccc3)cnc12 [Example 16]
IC50 [1]: 10 to 25 nM

SMILES: Cn1ccc(-c2cnc3c(N)c(C(=O)N4CCCCC4)sc3n2)cc1=O [Example 42]
IC50 [1]: 0.5 to 3 nM | activity at 0.3 µM [2]: 204%

SMILES: Nc1c(C(=O)N2CCc3ccccc3C2)sc2nc(-c3ccccc3)cnc12 [Example 54]
IC50 [1]: 50 to 1000 nM

SMILES: Nc1c(C(=O)N2CCCCC2)sc2nc(-c3cncc4ccccc34)cnc12 [Example 26]
IC50 [1]: 0.5 to 3 nM | activity at 0.01 µM [2]: 499%

SMILES: Nc1c(C(=O)N2CCCCC2)sc2nc(-c3ccn[nH]3)cnc12 [Example 9]
IC50 [1]: 3 to 10 nM

SMILES: Cn1cc(-c2cnc3c(N)c(C(=O)N4CCCCC4)sc3n2)cn1 [Example 48]
IC50 [1]: 10 to 25 nM

SMILES: CN(C)c1ncc(-c2cnc3c(N)c(C(=O)N4CCCCC4)sc3n2)cn1 [Example 25]
IC50 [1]: < 0.5 nM | activity at 0.3 µM [2]: 276%

SMILES: Nc1c(C(=O)N2CCCCC2)sc2nc(-c3cnc(N4CCOCC4)nc3)cnc12 [Example 24]
IC50 [1]: < 0.5 nM | activity at 0.3 µM [2]: 310%

SMILES: Nc1c(C(=O)N2CCCCC2)sc2nc(-c3c(Cl)cccc3Cl)cnc12 [Example 34]
IC50 [1]: 0.5 to 3 nM

Further lines, with some results ahead:

IC50 [1]: 0.5 to 3 nM
SMILES: Nc1c(C(=O)N2CCCCC2)sc2nc(-c3cncnc3)cnc12 [Example 6]
activity at 0.01 µM [2]: 412% | activity at 0.3 µM [2]: 450%

IC50 [1]: 3 to 10 nM
SMILES: Nc1c(C(=O)N2CCCCC2)sc2nc(-c3cccnc3)cnc12 [Example 32]
activity at 0.01 µM [2]: 530%

IC50 [1]: 0.5 to 3 nM
SMILES: Cn1cc(-c2cnc3c(N)c(C(=O)N4CCCCC4)sc3n2)ccc1=O [Example 17]

IC50 [1]: < 0.5 nM
SMILES: N#Cc1ccc(-c2cnc3c(N)c(C(=O)N4CCCCC4)sc3n2)cn1 [Example 47]
activity at 0.01 µM [2]: 424% | activity at 0.3 µM [2]: 774%

IC50 [1]: 3 to 10 nM
SMILES: N#Cc1ncc(-c2cnc3c(N)c(C(=O)N4CCCCC4)sc3n2)cn1 [Example 44]

IC50 [1]: 0.5 to 3 nM
SMILES: Nc1c(C(=O)N2CCCCC2)sc2nc(-c3ccc4nccn4c3)cnc12 [Example 15]
activity at 0.3 µM [2]: 168%

IC50 [1]: < 0.5 nM
SMILES: Nc1c(C(=O)N2CCCCC2)sc2nc(-c3ccc4ncsc4c3)cnc12 [Example 23]
activity at 0.01 µM [2]: 254% | activity at 0.3 µM [2]: 375%

IC50 [1]: < 0.5 nM
SMILES: COc1ncc(-c2cnc3c(N)c(C(=O)N4CCCCC4)sc3n2)cn1 [Example 60]

IC50 [1]: 0.5 to 3 nM
SMILES: Nc1c(C(=O)N2CCCCC2)sc2nc(-c3ccc4ncoc4c3)cnc12 [Example 2, (7-amino-3-(benzo[d]oxazol-6-yl)thieno[2,3-b]pyrazin-6-yl) (piperidin-1-yl) methanone]
activity at 0.01 µM [2]: 200% | activity at 0.3 µM [2]: 348%

IC50 [1]: 0.5 to 3 nM
SMILES: Nc1c(C(=O)N2CCCCC2)sc2nc(-c3ccc4nc[nH]c4c3)cnc12 [Example 40]
activity at 0.01 µM [2]: 233% | activity at 0.3 µM [2]: 315%

IC50 [1]: 0.5 to 3 nM
SMILES: Cc1ccc(-c2cnc3c(N)c(C(=O)N4CCCCC4)sc3n2)cn1 [Example 36]
activity at 0.01 µM [2]: 301% | activity at 0.3 µM [2]: 384%

IC50 [1]: < 0.5 nM
SMILES: Nc1ncc(-c2cnc3c(N)c(C(=O)N4CCCCC4)sc3n2)cn1 [Example 33]
activity at 0.01 µM [2]: 393% | activity at 0.3 µM [2]: 754%

IC50 [1]: 0.5 to 3 nM
SMILES: Nc1c(C(=O)N2CCCCC2)sc2nc(-c3ccc(F)nc3)cnc12 [Example 46]
activity at 0.3 µM [2]: 251%

IC50 [1]: 0.5 to 3 nM
SMILES: Nc1ccc(-c2cnc3c(N)c(C(=O)N4CCCCC4)sc3n2)cn1 [Example 13]
activity at 0.3 µM [2]: 207%
